Where a SMILES comes first, the peptide text is derived from it. Bridges are numbered along the chain shown (N, C = ends). [ ]: non-standard residue; d: D form.
Columns and labels:
mouse MC4R-EGFP = test: kinetic BRET β-arrestin-2 recruitment assay (MC4R-EGFP / β-arrestin-2-nanoluciferase); assay type: cell-based; conditions: ligand 10 μM; HEK293 cells, MC4R-EGFP and β-arrestin-2-NLuc; mean ligand-induced BRET from 312 to 2433 s, NDP-α-MSH set as 100; three independent experiments
Protocol: Considering the physiological relevance of β-arrestins and their critical role in orchestrating MC4R signaling, we measured β-arrestin-2 recruitment in a kinetic bioluminescence resonance energy transfer (BRET) assay. We screened at a ligand concentration of 10 μM in HEK293 cells transiently expressing MC4R coupled to EGFP, and β-arrestin-2 fused to nanoluciferase. […] By contrast, Pr4LP1, Ar3LP1, Ar3LP2, and GoLP1 recruited β-arrestin-2 with greater efficiencies (>130%) than NDP-α-MSH (Figures 4 and S5B,C).
Figure 4 β-Arrestin-2 recruitment of designed MC4R peptide analogues. BRET assay was used to measure the transient interaction of MC4R-EGFP with β-arrestin-2-nanoluciferase (NLuc) in HEK293 cells over time following cell treatment with 10 μM of tachyplesin-1-like peptides (Ta1LPs, green), protegrin-4-like peptides (Pr4LPs, pink), arenicin-3-like peptides (Ar3LPs, orange), and gomesin-like peptides (GoLPs, blue). Relative BRET quantification was determined by calculating the mean value of ligand-induced BRET for each peptide ligand from 312 to 2433 s which was then divided by the mean value of ligand-induced BRET of NDP-α-MSH set as 100. Data are shown as mean ± SEM from three independent experiments.
BRET assay was performed as previously described.[32] Briefly, β-arrestin-2-nano luciferase and mouse MC4R-EGFP were cotransfected in a 1:10 ratio. 16 h post-transfection, 50,000 cells in 100 μL of phenol red-free DMEM with 10% FBS per well were transferred into white clear bottom 96-well plates and incubated overnight. On the day of the assay, cells were incubated for 1 h at 37 °C in phenol red- and serum-free DMEM. Furimazine (diluted 1:50) and peptide ligands (4×) were prepared in Hank’s balanced salt solution (HBSS), respectively. Prior to establishing the baseline and measuring kinetic BRET, furimazine was incubated for 5 min at 37 °C. The ability of peptide ligands to induce β-arrestin-2 recruitment was assessed by measuring light emissions for EGFP (510 nm) and nanoluciferase (460 nm) over 35 min using Flexstation 3 (Molecular Devices, San Jose, USA). The BRET ratio was calculated as emission EGFP (510 nm)/emission nanoluciferase (460 nm). The ligand-induced BRET was calculated by subtracting […].

human MC4R = molecular target: T1, human MC4R (Homo sapiens, UniProt P32245); test: nanoluciferase complementation assay MC4R-SmBit / β-arrestin-2-LgBit (β-arrestin-2 recruitment); assay type: cell-based; conditions: for increased potency in β-arrestin-2 recruitment as compared to α-MSH: ratio of EC50 values, nanoluciferase complementation MC4R-SmBit/β-arrestin-2-LgBit; for Emax: read-out: increase in efficacy (Emax) of β-arrestin-2 recruitment compared to α-MSH
T1 construct: expressed in transfected cells; host or cells: HEK293T, transient co-transfection
Protocol: Figure 5 Biosensor characterization of Pr4LP1 and Ar3LP1 peptides acting as agonists at MC4R. […] Data are represented as means ± SEM for all experimental replicates and were performed in triplicate from n ≥ 3 independent experiments.
In an attempt to quantify signaling bias using the Black–Leff operational model by calculating ΔΔlog(τ/KA),[27]–[29] we identified a trend for preferred β-arrestin-2 recruitment over Gαs coupling, albeit not significant (data not shown).
The plasmid constructs used to show interactions between human MC4R and Gαs protein and/or β-arrestin-2 were designed with fused SmBit and LgBit proteins, that upon complementation form the fully functional nanoluciferase enzyme that can produce detectable bioluminescence upon addition of the substrate furimazine. For the Gαs coupling, we used a LgBit fused at the C-terminus of MC4R (MC4R-LgBit) and cotransfected with the Gαs-SmBit construct. For the β-arrestin-2 recruitment assay, we used a C-terminally fused MC4R-SmBit and the β-arrestin-2-LgBit constructs. The cotransfection ratio was 1:10 (Gαs/β-arrestin-2/receptor). Cells were harvested, washed, and resuspended in fresh medium 24 h post-transfection. Approximately 5 × 10^4 cells/well were distributed in precoated 96-well white plates and allowed to adhere overnight. On an experimental day, cells were washed with HBSS and maintained in HBSS (80 μL/well). The furimazine substrate for the luciferase (50×) stock was diluted at 1× with HBSS, and 10 μL/well was added to all assay wells and incubated for 12 min before addition of ligands. Ligand dilutions were prepared at 10× final concentration in HBSS, and 10 μL/well was added to the assay wells. Plates were read 5 min following ligand addition using a ClarioStar equipped with a nanoluc-compatible optic module (BMG Labtech). […] EC50/Emax values were calculated via a nonlinear regression analysis.

T1 sequence (P32245 whole entry): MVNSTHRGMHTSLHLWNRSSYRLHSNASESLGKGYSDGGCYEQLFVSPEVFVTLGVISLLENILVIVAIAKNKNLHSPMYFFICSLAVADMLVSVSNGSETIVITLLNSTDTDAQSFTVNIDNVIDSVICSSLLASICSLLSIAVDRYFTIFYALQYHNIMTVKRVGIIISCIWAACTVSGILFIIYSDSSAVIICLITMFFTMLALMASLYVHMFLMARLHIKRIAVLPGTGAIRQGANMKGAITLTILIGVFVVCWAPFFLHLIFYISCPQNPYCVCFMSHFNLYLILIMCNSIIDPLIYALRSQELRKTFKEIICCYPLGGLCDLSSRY
T1 sequence (P32121 whole entry partner): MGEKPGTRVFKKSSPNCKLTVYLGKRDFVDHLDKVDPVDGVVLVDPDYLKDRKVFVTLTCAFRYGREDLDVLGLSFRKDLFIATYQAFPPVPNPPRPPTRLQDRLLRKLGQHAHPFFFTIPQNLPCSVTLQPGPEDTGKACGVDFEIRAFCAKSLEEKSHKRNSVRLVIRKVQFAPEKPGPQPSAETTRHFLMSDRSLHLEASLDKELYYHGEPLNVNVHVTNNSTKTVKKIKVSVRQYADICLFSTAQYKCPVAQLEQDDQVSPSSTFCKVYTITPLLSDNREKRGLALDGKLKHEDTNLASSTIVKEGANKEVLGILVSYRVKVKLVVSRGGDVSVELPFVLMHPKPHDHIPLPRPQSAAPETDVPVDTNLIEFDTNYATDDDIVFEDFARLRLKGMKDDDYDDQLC

| SMILES | BRET efficacy of β-arrestin-2 recruitment relative to NDP-α-MSH (mouse MC4R-EGFP) [%] | EC50 (human MC4R) [nM] | increased potency in β-arrestin-2 recruitment as compared to α-MSH (human MC4R) | Emax (human MC4R) [%] |
| --- | --- | --- | --- | --- |
| CC(C)[C@@H]1NC(=O)[C@H](Cc2ccc(O)cc2)NC(=O)[C@H](Cc2c[nH]c3ccccc23)NC(=O)[C@@H](NC(=O)[C@H](Cc2ccccc2)NC(=O)CN)CSSC[C@@H](C(=O)N[C@@H](CC(N)=O)C(N)=O)NC(=O)[C@H](CCCNC(=N)N)NC(=O)[C@H](CCCNC(=N)N)NC(=O)[C@H](Cc2ccc(O)cc2)NC(=O)[C@@H]2CSSC[C@H](NC1=O)C(=O)N1CCC[C@H]1C(=O)N[C@@H](Cc1c[nH]cn1)C(=O)N[C@H](Cc1ccccc1)C(=O)N[C@@H](Cc1c[nH]cn1)C(=O)N[C@@H](Cc1c[nH]c3ccccc13)C(=O)N2 [Ar3LP1] (H-GFCWYVCPH[dF]HWCYRRCN-NH2; disulfide 3-17, 7-13) | > 130 | 25.2 | approximately 20 fold | 82 |
| CC(C)C[C@H](NC(=O)[C@H](CCCNC(=N)N)NC(=O)CNC(=O)CNC(=O)[C@@H](N)CCCNC(=N)N)C(=O)N[C@H]1CSSC[C@@H](C(=O)N[C@H](C(=O)NCC(=O)N[C@@H](CCCNC(=N)N)C(N)=O)C(C)C)NC(=O)[C@H](Cc2ccccc2)NC(=O)[C@@H]2CSSC[C@H](NC(=O)[C@H](Cc3ccc(O)cc3)NC1=O)C(=O)N1CCC[C@H]1C(=O)N[C@@H](Cc1c[nH]cn1)C(=O)N[C@H](Cc1ccccc1)C(=O)N[C@@H](Cc1c[nH]cn1)C(=O)N[C@@H](Cc1c[nH]c3ccccc13)C(=O)N2 [Pr4LP1] (H-RGGRLCYCPH[dF]HWCFCVGR-NH2; disulfide 6-16, 8-14) | > 130 | 23.5 | approximately 20 fold | 99 |
